In patent US10138265B2, “Uridine nucleoside derivatives, compositions and methods of use” (Tufts University, priority 2013, dated 2018):
Where two headings read alike, the source gives them in different places.

What was measured:
[1] = system: PSAPP mice; test: Two-photon in vivo imaging of methoxyX04 labeled amyloid plaques in barrel cortex; design: species or system mouse; details: acute i.c.v. treatment
Description: In this study, PSAPP mice were anesthetized using isoflurane and a thin-skull preparation was used to minimize the surface damage. Amyloid plaques were visualized with methoxyX04 labeling and blood plasma was labeled with Rhodamine dextran to facilitate re-localization of the same imaging area. Stack images were obtained using a two-photon system (Prairie Technologies) with excitation at 850 nm. The emission was detected by external photomultiplier tubes (525/70; DLCP 575; 607/45 nm). Animals were anesthetized and immobilized in a stereotaxic frame. For each injection, 1 μl of 10 mM UDP or other suitable compounds in artificial cerebrospinal fluid (ACSF) as the vehicle were injected intraventricularly using the following coordinates: AP 0.2 mm, ML 1 mm, and DV 2.2 mm. To evaluate the effect of UDP on plaque burden, two-photon microscopy was used to assess the amyloid plaques in the barrel cortex in living PSAPP mice. Amyloid plaques were stained by systemically administered methoxy-[…]. One day prior to imaging, PSAPP mice were injected with methoxyX04 to label the amyloid plaques. On the imaging day, to facilitate the re-location of the same imaging area, blood plasma was labeled with Rhodamine dextran. Images were obtained from the same start- and end-point to ensure the same image volume. The results were shown in a maximum intensity projection of a fluorescent stack containing 45 planes. Representative images of methoxyX04 labeled amyloid plaques and angiopathy on days 1 are shown in FIG. 1(A)-(C) Immediately after imaging, animals were injected with ACSF or UDP intracerebroventricularly (i.c.v.) and allowed to recover. On day 4, animals were subjected to a second period of imaging of the same regions studied on day 1 and the results are shown in FIG. 1(D)-(F). The similar pattern of angiopathy (shown by open arrows) indicated the same imaging area.

[2] = system: PSAPP mice; test: Postmortem immunohistochemistry of plaque load in cortex and hippocampus; assay type: in vivo, mouse
Description: Mice were perfused transcardially with 4% paraformaldehyde and 40 μm Coronal sections were collected. Sections were sequentially incubated in 0.3% H2O2 for 10 minutes, blocking solution for 2 hrs, blocking solution containing the primary antibody (rabbit anti-beta 1-42; rabbit anti-beta1-40, from Chemicon International and rat anti-CD45) for 48 hours at 4° C., and blocking solution containing biotinylated antibody or fluorescently-labeled antibody for 2 hours at room temperature. Sections were visualized in a bright field microscope or a confocal microscope, and the optical density was obtained using MetaMorph software.
After repeated imaging, brains were fixed and subjected to postmortem immunohistochemistry with amyloid beta specific antibodies β1-40 and β1-42 to evaluate the plaque load (area occupied by immunostaining of plaque) in cortex and hippocampus.
(§1) PSB0474 was systemically administered to PSAPP mice via intraperitoneal injection for 2, 4 and 6 consecutive days. In one group, prior to evaluation and following to administration for 6 consecutive days, treatment was suspended for two weeks (6+2 weeks group). Brains were then fixed and plaque load was evaluated by immunostaining with the amyloid beta specific antibodies: β1-40 and β1-42. Representative images of plaque load in cortex and hippocampus from animals that received injections of PSB0474 according to the foregoing injection schedules are shown in FIG. 5(A)-(D). […] Whereas, when administration of PSB0474 was stopped for 2 weeks following six consecutive days of treatment (denoted as the 6+2 weeks group), β1-40 staining rebounded; although to a level lower than observed in mice treated with saline as a vehicle control. FIGS. 6A and 6B depict the reduction in plaque load (%) the cortex and hippocampus, respectively, in PSAPP mice after treatment with 3-phenacyl-UDP for 2, 4, or 6 consecutive days, as assayed by staining with the β1-40 antibody. FIGS. 6C-6F depict data obtained following administration of different dosages of PSB0474.
To generate these graphs showing plaque load, mice were euthanized, brain sections cut and antibodies directed against Aβ42 were used to disclose Aβ plaques. Images were acquired digitally and an algorithm was applied to threshold the image so that plaques were isolated from the background. The algorithm then calculated the percent area of the field of view occupied by the plaques.
Brain samples were collected for Abeta analysis with immunostaining. Brains samples were collected after transcardial perfusion with phosphate buffer and 4% paraformaldehyde. Floating brain sections (40 µm) were collected using a microtome. Immunostaining for Aβ40 and Aβ42 were performed according to previously established protocol. Images with DAB staining were collected with brightfield microscopy and analyzed with ImageJ Macro. All data analysis and statistics were performed in GraphPad Prism 6.0.

[3] = system: PSAPP mice; test: Contextual fear conditioning test (freezing behavior); assay type: in vivo, mouse
Description: On day one, animals were trained in a fear conditioning apparatus for a total of 7 minutes with a two-pairing paradigm of cue and mild foot shock (a 30-s acoustic-conditioned stimulus, 80 dB; a 2-s shock stimulus, 0.5 mA). To evaluate contextual fear learning, the animals were returned to the training context 24 hours post-training, and freezing behavior was scored for 5 minutes. Freezing behavior was monitored by MotorMonitor (Hamilton Kinder) and scored every 5 seconds.
In this study, the fear conditioning associative learning paradigm was used as a rapid cognition assay for PSAPP mice. This study allowed us to probe cognitive function with a single training day followed in 24 hours by tests for contextual and cued fear learning. Contextual fear learning is dependent upon a brain area that has been implicated as a locus for cognitive decline in AD: the hippocampus. Two pairings of CS—US for fear conditioning were followed 24 hours later by testing for contextual and cued fear learning. Previous studies have reported that PSAPP animals appear to have a selective hippocampus-dependent impairment in associative learning following two pairings of conditioned stimuli for fear conditioning.
This represents a decrease in the cognitive impairment observed in the untreated mice.

[4] = system: PSAPP mice; test: Hippocampal long-term potentiation (LTP) recording; assay type: in vivo, mouse; details: acute treatment
Description: Hippocampal slices (350 μm thick) were prepared from 6-month-old PSAPP mice. Baseline responses were obtained every 10 seconds and Input-output (I/O) curves, paired-pulse modification and LTP were successively measured. The stimulation intensity was set to a level that gives a value of 30% of the maximum obtained. LTP were induced by high frequency stimulation (HFS, 100 pulses at 100 Hz, four times) or by theta-burst stimulation (TBS, 10 bursts at 5 Hz, repeated 10 times in 15 s intervals).
Accumulated evidence has shown that amyloid peptides naturally secreted or isolated from Alzheimer's brains impair synaptic plasticity, especially hippocampal long-term potentiation (Walsh et al., 2002). Therefore, we further performed LTP recordings in PASPP mice and investigated whether P2Y6 receptor-mediated plaque clearance affects synaptic plasticity. […] First, it was observed that LTP at the schaffer collateral synapse within the CA1 region was depressed in PSAPP mice, as compared with littermates (FIG. 8(A)).

[5] = system: PSAPP mice; test: Postmortem immunohistochemistry of plaque load in cortex and hippocampus; assay type: in vivo, mouse; remark: listed apart in the source
[6] = system: PSAPP mice; test: Tolerability of a higher dose in the plaque burden study; assay type: in vivo, mouse; details: 1000× increase in dose
Description: as §1

[7] = target: T1, P2Y6 receptor (Homo sapiens, UniProt Q15077); details: cited from earlier work
[8] = target: T2, P2Y2 receptor (Homo sapiens, UniProt P41231); test: Ca2+ mobilizing effect (fluo-4) in 1321N1 astrocytoma cells expressing P2Y2; assay type: cell-based; details: 1321N1 human astrocytoma cells expressing P2Y2
T2 construct: expressed in transfected cells; host or cells: 1321N1 human astrocytoma cells
Description: (§2) Synthetic ligands were tested for activation of P2Y6 receptor by measuring receptor induced Ca^2+ changes with the fluorescent Ca^2+ indicator fluo-4. 1321N1 human astrocytoma cell lines either expressing P2Y2, P2Y4 or P2Y6 receptors were plated into 24-well plates. Two days after plating, fluorometric measurements were made and responses of cells to a serial dilution of ligands were determined P2Y6 receptor mediated Ca^2+ fluorescent change was determined by normalized accumulation of fluorescent change of 3 timepoints after ligand administration subtracted by value from ACSF control. Changes in fluorescent intensity were plotted corresponding to ligand concention in GraphPad. Dose-response curve and EC50 for each ligand was estimated using nonlinear curve fit and Sigmoidal dose-response analysis. […]
(§3) Synthetic ligands were tested for activation of P2Y6 receptor by measuring receptor induced Ca^2+ changes with the fluorescent Ca^2+ indicator fluo-4, and results are shown in FIG. 10(A)-(K). […] Two days after plating, fluorometric measurements were made and responses of cells to a serial dilution of ligands were determined P2Y6 receptor mediated Ca^2+ fluorescent change was determined by normalized accumulation of fluorescent change of 3 timepoints after ligand administration subtracted by value from ACSF control. […]

[9] = target: T3, P2Y4 receptor (Homo sapiens, UniProt P51582); test: Ca2+ mobilizing effect (fluo-4) in 1321N1 astrocytoma cells expressing P2Y4; assay type: cell-based; details: 1321N1 human astrocytoma cells expressing P2Y4
T3 construct: expressed in transfected cells; host or cells: 1321N1 human astrocytoma cells
Description: as §2, §3

[10] = target: T1, P2Y6 receptor; test: Activation of P2Y6 receptor: receptor induced Ca2+ changes with fluo-4 in 1321N1 astrocytoma cells; assay type: cell-based; design: expressed in transfected cells; host or cells: 1321N1 human astrocytoma cells
Description: as §2, §3

[11] = Oral bioavailability; details: in vivo
[12] = Half-life in human whole blood; assay type: in vitro ADME
[13] = barrel cortex, day 4 vs day 1, P<0.01
[14] = 10 ug/kg i.p. once per day for 7 days, PS1/APP mice, cortex

T1 sequence (Q15077 whole entry): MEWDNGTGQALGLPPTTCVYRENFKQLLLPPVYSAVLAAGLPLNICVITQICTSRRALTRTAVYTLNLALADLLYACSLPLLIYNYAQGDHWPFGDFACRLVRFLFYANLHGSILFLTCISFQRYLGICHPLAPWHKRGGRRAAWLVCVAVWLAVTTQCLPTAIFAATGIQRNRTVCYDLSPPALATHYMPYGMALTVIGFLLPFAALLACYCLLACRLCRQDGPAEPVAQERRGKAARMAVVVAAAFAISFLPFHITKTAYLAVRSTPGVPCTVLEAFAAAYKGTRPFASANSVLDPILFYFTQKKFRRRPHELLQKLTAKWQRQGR
T2 sequence (P41231 whole entry): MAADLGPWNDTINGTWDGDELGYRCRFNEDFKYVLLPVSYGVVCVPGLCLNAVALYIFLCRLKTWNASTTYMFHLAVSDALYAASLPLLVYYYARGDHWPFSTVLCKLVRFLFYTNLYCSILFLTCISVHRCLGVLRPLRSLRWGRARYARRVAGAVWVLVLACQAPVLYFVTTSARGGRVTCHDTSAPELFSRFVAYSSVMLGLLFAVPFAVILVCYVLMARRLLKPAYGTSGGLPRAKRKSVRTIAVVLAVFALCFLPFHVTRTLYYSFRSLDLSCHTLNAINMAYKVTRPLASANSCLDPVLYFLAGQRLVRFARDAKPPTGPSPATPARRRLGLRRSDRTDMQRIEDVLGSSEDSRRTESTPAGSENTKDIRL
T3 sequence (P51582 whole entry): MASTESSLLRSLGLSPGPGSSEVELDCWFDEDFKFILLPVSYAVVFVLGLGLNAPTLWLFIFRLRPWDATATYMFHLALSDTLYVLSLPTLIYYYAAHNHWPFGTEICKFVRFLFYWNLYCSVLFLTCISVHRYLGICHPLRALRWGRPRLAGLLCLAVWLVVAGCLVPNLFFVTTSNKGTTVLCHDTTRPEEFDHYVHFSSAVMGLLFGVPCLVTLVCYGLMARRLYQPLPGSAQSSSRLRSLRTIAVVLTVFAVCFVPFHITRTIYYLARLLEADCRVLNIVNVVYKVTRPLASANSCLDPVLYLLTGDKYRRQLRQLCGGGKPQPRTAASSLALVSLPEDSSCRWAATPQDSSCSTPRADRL

O=c1ccn([C@@H]2O[C@H](COP(=O)(O)OP(=O)(O)O)[C@@H](O)[C@H]2O)c(=O)[nH]1 [UDP, uridine diphosphate]
reduction in plaque load [1, 13]: 17.2%
reduction in the number of plaques [1, 13]: 12.6%
reduction in cross-sectional area of individual identified plaques ([1]; second imaging session, P<0.01): 18.2%
decrease in plaque load, cortex ([2]; β1-40 antibody staining, cortex, acute i.c.v., p<0.05): 60%
decrease in plaque load, hippocampus ([2]; β1-40 antibody staining, hippocampus, acute i.c.v., p<0.01): 62%
decrease in plaque load, cortex ([2]; β1-42 antibody staining, cortex, acute i.c.v., P<0.01): 48%
total freezing percentage ([3]; acute i.c.v. treatment, ACSF control 18%±3%): 49%±5%
LTP at CA1 of hippocampus compared with ACSF ([4]; HFS): significantly increased
field excitatory postsynaptic potential (fEPSP), last 15 min potentiation ([4]; comparable to littermates): significant increase
decrease in plaque load, hippocampus ([5]; β1-42 antibody staining, hippocampus, acute i.c.v., P<0.05): 47%

O=C(Cn1c(=O)ccn([C@@H]2O[C@H](COP(=O)(O)OP(=O)(O)O)[C@@H](O)[C@H]2O)c1=O)c1ccccc1 [3-phenacyl-UDP]
effects on the efficacy endpoint at the higher dose ([2]; 1 mg/kg, one week daily): smaller effects
β1-40 staining after treatment stopped ([2]; 6 consecutive days i.p., then stopped for 2 weeks (6+2 weeks group), level lower than saline control): rebounded
immunoreactivity of β1-40 in both cortex and hippocampus ([2]; i.p. for 4 and 6 consecutive days): significantly decreased
total freezing percentage in context test ([3]; chronic injection, two doses): increased
detrimental effects to the animal [6]: did not cause detrimental effects
selectivity for P2Y6 receptor [7]: > 500 fold
EC50 ([7]; read-out: EC50, P2Y6 receptor agonist): 0.07 µM

O=c1ccn([C@@H]2O[C@H](COP(=O)(O)OP(=O)(O)O)[C@@H](O)[C@H]2O)c(=O)n1Cc1noc2ccccc12
elevating Ca2+ levels in P2Y2 receptor expressing cells [8]: not effective
elevating Ca2+ levels in P2Y4 receptor expressing cells [9]: not effective
EC50 ([10]; 1321N1 human astrocytoma cells expressing P2Y6, fluo-4 Ca2+): 0.012 µM
ability to elevate Ca2+ signals in P2Y6 receptor expressing cells on addition of P2Y6 antagonist MRS2578 ([10]; with MRS2578): attenuated

O=c1ccn([C@@H]2O[C@H](CO)[C@H](O)C2O)c(=O)n1Cc1noc2ccccc12 (some centres unmarked) [compound 5]
size distribution of remaining plaques ([2]; 10 ug/kg i.p. once per day for 7 days, PS1/APP mice): significantly reduced
Aβ42 plaque burden [2, 14]: significantly reduced
bioavailability [11]: 72.2%
half-life [12]: 16.4 h
Aβ40 plaque burden [5, 14]: significantly reduced
